The results in this text go back to BindingDB's records for doi:10.1021/acs.jmedchem.0c02069 (Indiana University, 2021).

Peptide text beside a SMILES is read from it.

In the assay the target is Glucagon receptor (Homo sapiens, UniProt P47871). Nature of the assay: Displacement of 125I-glucagon from human GCGR expressed in HEK293 cells membranes incubated for 6 hrs by liquid scintillation counting method.
Glucagon receptor, sequence (P47871 whole entry): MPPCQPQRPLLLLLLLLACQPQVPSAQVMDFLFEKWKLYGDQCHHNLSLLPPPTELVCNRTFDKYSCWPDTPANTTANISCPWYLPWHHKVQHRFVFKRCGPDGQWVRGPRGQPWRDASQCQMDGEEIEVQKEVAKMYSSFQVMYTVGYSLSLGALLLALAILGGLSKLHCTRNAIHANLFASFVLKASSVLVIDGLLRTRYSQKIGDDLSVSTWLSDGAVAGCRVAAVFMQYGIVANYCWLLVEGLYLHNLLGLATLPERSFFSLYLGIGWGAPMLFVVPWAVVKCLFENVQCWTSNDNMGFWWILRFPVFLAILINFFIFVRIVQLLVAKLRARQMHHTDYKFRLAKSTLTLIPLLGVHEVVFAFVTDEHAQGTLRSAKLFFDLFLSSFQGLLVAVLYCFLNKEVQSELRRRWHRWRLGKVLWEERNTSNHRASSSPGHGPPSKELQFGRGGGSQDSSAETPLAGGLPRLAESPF

As to `CSCC[C@H](NC(=O)[C@H](CC(C)C)NC(=O)[C@H](Cc1c[nH]c2ccccc12)NC(=O)[C@H](CCC(N)=O)NC(=O)[C@@H](NC(=O)[C@H](Cc1ccccc1)NC(=O)[C@H](CC(=O)O)NC(=O)[C@H](CCC(N)=O)NC(=O)[C@H](C)NC(=O)[C@H](CCCNC(=N)N)NC(=O)[C@H](CCCNC(=N)N)NC(=O)[C@H](CO)NC(=O)[C@H](CC(=O)O)NC(=O)[C@H](CC(C)C)NC(=O)[C@H](Cc1ccc(O)cc1)NC(=O)[C@H](CCCCN)NC(=O)[C@H](CO)NC(=O)[C@H](Cc1ccc(O)cc1)NC(=O)[C@H](CCC(=O)O)NC(=O)[C@H](CO)NC(=O)[C@@H](NC(=O)[C@@H](O)Cc1ccccc1)[C@@H](C)O)C(C)C)C(=O)N[C@@H](CC(N)=O)C(=O)N[C@H](C(N)=O)[C@@H](C)O` (HELM PEPTIDE1{[O=C([C@@H](O)Cc1ccccc1)[*:2]].T.S.E.Y.S.K.Y.L.D.S.R.R.A.Q.D.F.V.Q.W.L.M.N.T.[am]}$$$$V2.0), the IC50 turned out to be 12 nM. As to `CSCC[C@H](NC(=O)[C@H](CC(C)C)NC(=O)[C@H](Cc1c[nH]c2ccccc12)NC(=O)[C@H](CCC(N)=O)NC(=O)[C@@H](NC(=O)[C@H](Cc1ccccc1)NC(=O)[C@H](CC(=O)O)NC(=O)[C@H](CCC(N)=O)NC(=O)[C@H](C)NC(=O)[C@H](CCCNC(=N)N)NC(=O)[C@H](CCCNC(=N)N)NC(=O)[C@H](CO)NC(=O)[C@H](CC(=O)O)NC(=O)[C@H](CC(C)C)NC(=O)[C@H](Cc1ccc(O)cc1)NC(=O)[C@H](CCCCN)NC(=O)[C@H](CO)NC(=O)[C@H](Cc1ccc(O)cc1)NC(=O)[C@H](CSCC(=O)O)NC(=O)[C@H](CO)NC(=O)[C@@H](NC(=O)[C@H](Cc1ccccc1)NC(=O)[C@@H](NC(=O)CNC(=O)[C@H](CCC(N)=O)NC(=O)[C@@H](N)CO)[C@@H](C)O)[C@@H](C)O)C(C)C)C(=O)N[C@@H](CC(N)=O)C(=O)N[C@H](C(N)=O)[C@@H](C)O`, the IC50 turned out to be 13 nM.
